The values that follow are results of earlier work, collected in PubChem BioAssay AID1259410 (Chemical Carcinogenesis Research Information System (CCRIS), 2018).

The subject of the data set is rodent tumor promotion studies, tumor incidence. Put plainly: CCRIS tumor promotion studies. The settings on record: Doses [Promoter]: 0, Doses [Promoter]: 0, Species: RAT, Strain/Sex: F344/MALE.

On to `Cn1c(N)nc2ncc(-c3ccccc3)cc21`, for which the outcome by setting is: (Carcinogen: 3,2'-DIMETHYL-4-AMINOBIPHENYL, 13394-86-0, Doses [Carcinogen]: 50 MG/KG BW ONCE/2 WK FOR FIRST 20 WK (STUDY DURATION: 60 WK), 100, 300 PPM IN DIET FOR 40 WK BEGINNING 20 WK POST CARCINOGEN TREATMENT (STUDY DURATION: 60 WK), 100, 300 PPM IN DIET FOR 40 WK BEGINNING 20 WK POST CARCINOGEN TREATMENT (STUDY DURATION: 60 WK), Route [Carcinogen]: SUBCUTANEOUS, Route [Promoter]: ORAL) “small intestine: adenocarcinoma”; (Carcinogen: AZOXYMETHANE [25843-45-2], Doses [Carcinogen]: 2 DOSES OF 15 MG/KG BW AT 1 WK INTERVALS STARTING AT 6 WKS OF AGE (STUDY DURATION: 36 WKS), 0.001, 0.01, 0.1, 1, 10, 50, 200 PPM IN DIET FOR 34 WKS STARTING AFTER CARCINOGEN, 0.001, 0.01, 0.1, 1, 10, 50, 200 PPM IN DIET FOR 34 WKS STARTING AFTER CARCINOGEN, Route [Carcinogen]: SUBCUTANEOUS, Route [Promoter]: ORAL (DIET)) “large intestine: adenomas and adenocarcinoma; only doses of 50 and 200 ppm were”; (Carcinogen: DIETHYLNITROSAMINE, 55-18-5, N-METHYL-N-NITROSOUREA, 684-93-5, N-BUTYL-N-(4-HYDROXYBUTYL)NITROSAMINE, 3817-11-6, 1,, Carcinogen: DIETHYLNITROSAMINE, 55-18-5, N-METHYL-N-NITROSOUREA, 684-93-5, N-BUTYL-N-(4-HYDROXYBUTYL)NITROSAMINE, 3817-11-6, 1,, Doses [Carcinogen]: 100 MG/KG BW DEN ONCE, 20 MG/KG BW MNU 4 TIMES, 0.05% BBN IN DRINKING WATER FOR FIRST 2 WK OF STUDY, 40 MG/KG DMH 4 TIME, Doses [Carcinogen]: 100 MG/KG BW DEN ONCE, 20 MG/KG BW MNU 4 TIMES, 0.05% BBN IN DRINKING WATER FOR FIRST 2 WK OF STUDY, 40 MG/KG DMH 4 TIME, 60 PPM IN DIET FOR 24 WK BEGINNING AT WK 5 OF STUDY (STUDY DURATION: 29 WK), Route [Carcinogen]: INTRAPERITONEAL, INTRAPERITONEAL, ORAL, SUBCUTANEOUS, ORAL, Route [Carcinogen]: INTRAPERITONEAL, INTRAPERITONEAL, ORAL, SUBCUTANEOUS, ORAL, Route [Promoter]: ORAL) “large intestine: adenocarcinoma”; (Carcinogen: DIETHYLNITROSAMINE, 55-18-5, N-METHYL-N-NITROSOUREA, 684-93-5, N-BUTYL-N-(4-HYDROXYBUTYL)NITROSAMINE, 3817-11-6, 1,, Carcinogen: DIETHYLNITROSAMINE, 55-18-5, N-METHYL-N-NITROSOUREA, 684-93-5, N-BUTYL-N-(4-HYDROXYBUTYL)NITROSAMINE, 3817-11-6, 1,, Doses [Carcinogen]: 100 MG/KG BW DEN ONCE, 20 MG/KG BW MNU 4 TIMES, 0.05% BBN IN DRINKING WATER FOR FIRST 2 WK OF STUDY, 40 MG/KG DMH 4 TIME, Doses [Carcinogen]: 100 MG/KG BW DEN ONCE, 20 MG/KG BW MNU 4 TIMES, 0.05% BBN IN DRINKING WATER FOR FIRST 2 WK OF STUDY, 40 MG/KG DMH 4 TIME, 300 PPM IN DIET FOR 24 WK BEGINNING AT WK 5 OF STUDY (STUDY DURATION: 29 WK), Route [Carcinogen]: INTRAPERITONEAL, INTRAPERITONEAL, ORAL, SUBCUTANEOUS, ORAL, Route [Carcinogen]: INTRAPERITONEAL, INTRAPERITONEAL, ORAL, SUBCUTANEOUS, ORAL, Route [Promoter]: ORAL) “small intestine: adenocarcinoma; large intestine: adenocarcinoma”.
